# Source: publication PMC12881674, “Activation of TRPV3 channels in bladder cancer cells stimulates ATP release” (Molecular Pharmacology, 2025)
# Test system: KU-19-19 cells
# Test: MTT cell viability/proliferation assay
# Type: cell-based, human
# Settings: 24 hours, concentrations up to 50 μM
# Procedure: To monitor a potential cytotoxicity of individual compounds, 3-(4,5-dimethylthiazol-2-yl)-2,5-diphenyltetrazolium bromide (MTT) assays were performed to assess cell viability and metabolic activity. Cells (5000 per/well) were seeded in PLL-coated 96-well plates and allowed to adhere overnight. After 24 hours, culture medium was exchanged for medium containing indicated drugs, and cells were cultured for another 24 hours. Following treatment with the compounds, 100 μL of medium containing 0.5 mg/mL MTT was added, and cells were incubated for additional 3 hours. The medium was removed, and 100 μL of DMSO was added to dissolve formazan crystals. Absorbance was measured at 560 nm, with a reference wavelength at 670 nm using a plate reader (Polarstar Omega; BMG Labtech). Cell viability was calculated relative to untreated control cells.
# Fig. 4 TRPV3 activation by AV3-1 was enhanced by cholesterol supplementation and causes ATP release in KU-19-19 bladder cancer cells. […] Current amplitudes were recorded using voltage ramps from −100 mV to +100 mV (500-millisecond duration) and expressed as current density (pA/pF) measured at +100 mV and −100 mV. (C) Quantification of current densities (pA/pF) at −100 mV (inward current) and +100 mV (outward current) at the time points (1, 2) as indicated in (A, B). […]
structure (smiles),measurement,value
COC(=O)C12CN(Cc3ccccc3)CC1(C(=O)OC)CN(Cc1ccccc1)C2 (stereo not shown) [AV3-1],"toxicity (cell viability and proliferation, MTT)",only minor toxicity
